# Results as given in US20260217687A1 (NeoPhore Limited, priority 2023, published 2026).
# Molecular target: T1, recombinant N-terminal MLH1 (residues 15-340) (Homo sapiens, UniProt P40692)
# T1 construct: recombinant N-terminal MLH1 (residues 15-340)
# T1 sequence (P40692 15-340): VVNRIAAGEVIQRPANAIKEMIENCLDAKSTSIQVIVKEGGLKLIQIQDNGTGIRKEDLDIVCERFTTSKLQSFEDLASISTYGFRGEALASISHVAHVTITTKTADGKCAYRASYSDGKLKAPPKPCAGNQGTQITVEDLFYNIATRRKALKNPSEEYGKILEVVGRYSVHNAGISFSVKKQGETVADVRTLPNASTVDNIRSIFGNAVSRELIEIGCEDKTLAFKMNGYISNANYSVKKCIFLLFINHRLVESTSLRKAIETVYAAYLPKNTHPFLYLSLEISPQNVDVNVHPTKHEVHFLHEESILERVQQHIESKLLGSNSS
# Test: Fluorescence Polarisation Assay for MLH1
# Format: binding
# Details: 100 nM N-terminal MLH1, 5 nM probe compound
# Summary of the method: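 Fluorescence polarisation displacement: 100 nM MLH1 (15-340) preincubated 30 min at room temperature with compound, then 5 nM rhodamine-labelled probe added and read immediately. Buffer 25 mM HEPES pH 7.5, 250 mM NaCl, 10 mM MgCl2, 0.01% Triton X-100, 5 mM DTT; normalised to no-inhibitor and no-enzyme controls.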
row,IC50 [nM],SMILES
1,100 to 1000,"CC(=O)N1CC[C@@H](Nc2cccc3c2CN(C(=O)c2c(O)cc(C#N)cc2OCc2ccccc2)C3)C1 [Example 10.5, (R)-4-(4-((1-Acetylpyrrolidin-3-yl)amino)isoindoline-2-carbonyl)-3-(benzyloxy)-5-hydroxybenzonitrile]"
2,100 to 1000,"CN1CCC(Oc2ccc3c(c2)CN(C(=O)c2c(O)cc(C#N)cc2OCc2ccccc2)C3)CC1 [Example 10.33, 3-(Benzyloxy)-5-hydroxy-4-(5-((1-methylpiperidin-4-yl)oxy)isoindoline-2-carbonyl)benzonitrile]"
3,100 to 1000,"CN1CC[C@H](Nc2cccc3c2CN(C(=O)c2c(O)cc(C#N)cc2OCc2ccccc2)C3)C1=O [Example 10.27, (S)-3-(Benzyloxy)-5-hydroxy-4-(4-((1-methyl-2-oxopyrrolidin-3-yl)amino)isoindoline-2-carbonyl)benzonitrile]"
4,1000 to 10000,"N#Cc1cc(O)c(C(=O)N2CCc3cccc(N[C@@H]4CCOC4)c3C2)c(OCc2ccccc2)c1 [Example 10.12, (R)-3-(Benzyloxy)-5-hydroxy-4-(8-((tetrahydrofuran-3-yl)amino)-1,2,3,4-tetrahydroisoquinoline-2-carbonyl)benzonitrile]"
5,1000 to 10000,"COc1cc(C#N)cc(O)c1C(=O)N1Cc2cccc(N[C@H]3CCOC3)c2C1 [Example 12.1, (S)-3-Hydroxy-5-methoxy-4-(4-((tetrahydrofuran-3-yl)amino)isoindoline-2-carbonyl)benzonitrile]"
6,100 to 1000,"COc1cc2c(c(N[C@H]3CCOC3)c1)CN(C(=O)c1c(O)cc(C#N)cc1OCc1ccccc1)C2 [Example 10.14, (S)-3-(Benzyloxy)-5-hydroxy-4-(6-methoxy-4-((tetrahydrofuran-3-yl)amino)isoindoline-2-carbonyl)benzonitrile]"

# Continued, compound first:
row,SMILES,IC50 [nM]
1,"O=C(c1c(O)cc(C(F)F)cc1OCc1ccccc1)N1CCc2cc(NC3CCOC3)ccc21 (single isomer, unassigned) [Example 27.5b, (S)-(2-(Benzyloxy)-4-(difluoromethyl)-6-hydroxyphenyl)(5-((tetrahydrofuran-3-yl)amino)indolin-1-yl)methanone or (R)-(2-(Benzyloxy)-4-(difluoromethyl)-6-hydroxyphenyl)(5-((tetrahydrofuran-3-yl)amino)indolin-1-yl)methanone]",100 to 1000
2,"CN(C)Cc1cc2c(c(N[C@H]3CCOC3)c1)CN(C(=O)c1c(O)cc(C(F)F)cc1OCc1ccccc1)CC2 [Example 4.21, (S)-(2-(Benzyloxy)-4-(difluoromethyl)-6-hydroxyphenyl)(6-((dimethylamino)methyl)-8-((tetrahydrofuran-3-yl)amino)-3,4-dihydroisoquinolin-2(1H)-yl)methanone]",< 100
3,"CN1CCN(Cc2ccc3c(c2)CN(C(=O)c2c(O)cc(C(F)F)cc2OCc2ccccc2)CC3)CC1 [Example 4.46, (2-(Benzyloxy)-4-(difluoromethyl)-6-hydroxyphenyl)(7-((4-methylpiperazin-1-yl)methyl)-3,4-dihydroisoquinolin-2(1H)-yl)methanone]",100 to 1000
4,"COc1ccc2c(c1)CN(C(=O)c1c(O)cc(C(F)F)cc1OCc1ccccc1)CC2 [Example 4.38, (2-(Benzyloxy)-4-(difluoromethyl)-6-hydroxyphenyl)(7-methoxy-3,4-dihydroisoquinolin-2(1H)-yl)methanone]",1000 to 10000
5,"CN1CC[C@H](Nc2cccc3c2CN(C(=O)c2c(O)cc(C(F)F)cc2OCc2ccccc2)C3)C1=O [Example 4.12, (S)-3-((2-(2-(Benzyloxy)-4-(difluoromethyl)-6-hydroxybenzoyl)isoindolin-4-yl)amino)-1-methylpyrrolidin-2-one]",100 to 1000
6,"O=C(c1c(O)cc(C(F)F)cc1OCc1ccccc1)N1Cc2cc(Cn3ccnc3)cc(N[C@H]3CCOC3)c2C1 [Example 4.19, (S)-(6-((1H-Imidazol-1-yl)methyl)-4-((tetrahydrofuran-3-yl)amino)isoindolin-2-yl) (2-(benzyloxy)-4-(difluoromethyl)-6-hydroxyphenyl)methanone]",100 to 1000
